One assay addresses T1, human TLR7 (Homo sapiens, UniProt Q9NYK1).
T1 construct: host or cells: HEK293
T1 sequence (Q9NYK1 27-1049): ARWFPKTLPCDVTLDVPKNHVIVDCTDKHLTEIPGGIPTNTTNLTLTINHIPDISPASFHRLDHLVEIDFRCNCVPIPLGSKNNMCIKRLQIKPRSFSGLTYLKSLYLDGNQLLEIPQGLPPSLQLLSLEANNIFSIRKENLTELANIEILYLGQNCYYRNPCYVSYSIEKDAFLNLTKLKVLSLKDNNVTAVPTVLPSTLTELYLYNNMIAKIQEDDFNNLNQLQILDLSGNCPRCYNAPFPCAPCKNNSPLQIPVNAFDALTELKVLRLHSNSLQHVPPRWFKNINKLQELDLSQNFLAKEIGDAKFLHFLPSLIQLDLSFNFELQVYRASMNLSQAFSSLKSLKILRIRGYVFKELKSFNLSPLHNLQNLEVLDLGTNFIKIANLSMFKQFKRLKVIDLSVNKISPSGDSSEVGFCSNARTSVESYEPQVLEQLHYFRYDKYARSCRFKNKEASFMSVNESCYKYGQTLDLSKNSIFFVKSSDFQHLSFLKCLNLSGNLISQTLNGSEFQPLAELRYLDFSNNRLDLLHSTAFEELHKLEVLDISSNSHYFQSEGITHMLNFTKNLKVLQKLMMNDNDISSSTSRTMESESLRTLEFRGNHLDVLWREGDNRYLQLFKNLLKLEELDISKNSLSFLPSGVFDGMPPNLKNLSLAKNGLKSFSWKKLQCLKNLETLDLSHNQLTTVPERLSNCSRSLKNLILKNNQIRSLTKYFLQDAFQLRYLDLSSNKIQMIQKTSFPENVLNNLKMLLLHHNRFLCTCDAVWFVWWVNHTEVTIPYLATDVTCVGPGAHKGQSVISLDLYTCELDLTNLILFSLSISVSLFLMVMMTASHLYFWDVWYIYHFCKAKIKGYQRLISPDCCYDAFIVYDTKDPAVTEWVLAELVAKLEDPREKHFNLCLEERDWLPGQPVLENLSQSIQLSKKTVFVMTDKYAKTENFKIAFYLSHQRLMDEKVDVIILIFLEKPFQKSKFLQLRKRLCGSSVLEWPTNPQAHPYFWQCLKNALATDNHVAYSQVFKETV
The assay can be described thus: TLR7 reporter cell assay (HEK293 cells stably expressing human TLR7 with NF-κB-driven SEAP reporter). The following applies: 15-24 hours; for Emax at 500 µM: HEK293, 500 μM compound, SEAP activity (OD 650 nm) relative to 28.5 μM resiquimod, read-out: Response at 500 μM Compound as a Percent of Resiquimod Response; for EC50: fit of SEAP dose response, ymax from 28.5 μM resiquimod. The assay is classed as cell-based. From the text: The engagement of TLRs by cognate ligands triggers downstream signaling cascades, leading to the activation of NF-κB and other transcription factors which initiate various immunomodulatory effects. The human embryonic kidney cell line, HEK293, is essentially non-responsive to TLR agonists, but ectopic expression of TLRs in these cells allows cognate agonists to activate endogenous NF-κB. Accordingly, the HEK293-TLR-NF-κB inducible reporter system is used to assay TLR agonists.
HEK293 cell lines stably expressing human TLR7 or TLR8 together with an NF-κB-driven-secreted alkaline phosphatase (SEAP) reporter were invented at InvivoGen (San Diego, California, USA) and used to assess compounds of the present invention for TLR7 and TLR8 agonist activities. Cells were seeded at 2-5×10^4 cells/well in 96 well plates (200 μl/well) and treated with various concentrations of compound (10 μl) for 15-24 hours. SEAP activity was determined by measuring OD at 650 nm; the media used to culture the cell lines contains the reagents required for SEAP detection. The EC50 values in Table 1 are calculated from fitting the dose response of measured SEAP activity for each compound to the following equation: Y=ymax*c^nh/(EC50^nh+c^nh)+blank where Y is the experimentally measured OD650 at concentration c of test article, blank is the observed OD650 in the absence of TLR7 agonist, ymax is the difference between the measured OD650 in the presence of 28.5 μM resiquimod and the blank and values of EC50 and nh are determined by nonlinear least squares analysis. Resiquimod is a known TLR7 and TLR8 agonist.
Compound A is 5-amino-3-((2R,3R,5S)-3-hydroxy-5-((S)-1-hydroxypropyl)tetrahydrofuran-2-yl)thiazolo[4,5-d]pyrimidine-2,7(3H,6H)-dione)

In assay [1] the test system is hPBMCs (Human Peripheral Blood Mononuclear Cells). As to the kind of experiment: Induction of interferon-α in hPBMCs in vitro. The assay is classed as cell-based. The note with it: Homo sapiens, PBMC; for Emax: 24 h, peak IFNα2a as percentage of peak response of standard 2-Amino-7-(cyclopropylmethyl)-9-B-D-xylofuranosyl-7,9-dihydro-1H-purine-6,8-dione, averaged across donors, read-out: IFNrmax, Relative Maximal IFNα2a Production (%); for minimal effective concentration: minimal effective concentration for interferon-α production (generally at least 80 pg/ml above baseline), geometric mean across at least three donors, 24 hours, read-out: Weighted MEC. As for the experimental part:
Treatment of hPBMCs with a TLR7 agonist typically induces some production of interferon-α as well as lesser amounts of a variety of other cytokines and chemokines. A typical experiment uses hPBMCs isolated from a healthy donor and placed in replicate cell culture wells; typically 1.0-7.5×10^6 cells are placed in each well. A test compound is added and the cells are cultured for 24 hours at 37° C. in a humidified atmosphere containing 5% CO2 post-addition; untreated controls are included. Secreted interferon-α production is measured using an a multisubtype interferon-α ELISA kit like those from PBL Assay Sciences or specifically as IFNα2a as part of a panel of cytokines and chemokines using luminex methodologies.
The minimal effective concentration (MEC) is the minimum concentration in a dose response curve where a significant increase in interferon-α production (generally at least 80 pg/ml) is observed above baseline. MEC values for each compound are determined for at least three donors. The weighted MEC for each compound is the geometric mean of all individual MECs across all donors. Concentrations tested typically consist of a two-fold dilution series starting at 100 μM. In the calculation of weighted MEC, any individual MEC value greater the highest concentration tested is arbitrarily set to two times the highest concentration tested unless all MECs for a compound exceed this value. The maximal amount of IFNα2a for each donor is determined from dose dependence for each compound.
In order to normalize for variation in each hPBMC preparation, these values are first transformed by expressing as a percentage of peak response measured with a standard (2-Amino-7-(cyclopropylmethyl)-9-B-D-xylofuranosyl-7,9-dihydro-1H-purine-6,8-dione) and then averaging the results across all donors, this average referred to as IFNrmax.
IFNmax is the maximum amount of IFN observed at any concentration across the evaluated concentration range. MEC and IFNmax values for three select compound are shown for three donors (Table 3). The range of tested concentrations were 0.625-5 μM for Imiquimod, 3.125-100 μM for both Compound A and Compound 1, 12.5-100 μM for Compound 2.

Some results are limits rather than exact numbers.

A word on the EC50: it is the concentration giving half of the maximal effect.

Take `CC[C@H](O)[C@H]1O[C@@H](n2c(=O)n(CC3CC3)c3c(=O)[nH]c(N)nc32)[C@H](O)[C@H]1F` [Compound 17, 2-Amino-7-(cyclopropylmethyl)-9-((2R,3S,4R,5R)-4-fluoro-3-hydroxy-5-((S)-1-hydroxypropyl)tetrahydrofuran-2-yl)-7,9-dihydro-1H-purine-6,8-dione]: on human TLR7, the Emax at 500 µM is 58% and the EC50 was found to be 358 µM. In assay [1], the Emax came out at 185% and the minimal effective concentration was no more than 3.1 µM.

On to `C#CCn1c(=O)n([C@@H]2O[C@H](C(C)(C)O)C[C@H]2O)c2nc(N)[nH]c(=O)c21` [Compound 18, 2-Amino-9-((2R,3R,5S)-3-hydroxy-5-(2-hydroxypropan-2-yl)tetrahydrofuran-2-yl)-7-(prop-2-yn-1-yl)-7,9-dihydro-1H-purine-6,8-dione], for which the Emax at 500 µM on human TLR7 was less than 5%. Also, in assay [1], the Emax was no more than 10% and the minimal effective concentration was greater than 50 µM.

`C#CCn1c(=O)n([C@@H]2O[C@H](C(C)(C)O)[C@H](F)[C@H]2O)c2nc(N)[nH]c(=O)c21` [Compound 19, 2-Amino-9-((2R,3S,4R,5R)-4-fluoro-3-hydroxy-5-(2-hydroxypropan-2-yl)tetrahydrofuran-2-yl)-7-(prop-2-yn-1-yl)-7,9-dihydro-1H-purine-6,8-dione]: the Emax at 500 µM on human TLR7 was less than 5%. Besides, in assay [1], the Emax is no more than 10% and the minimal effective concentration was greater than 50 µM.

On to `CC[C@H](O)[C@@H]1C[C@@H](O)[C@H](n2c(=O)n(CCSC)c3c(=O)[nH]c(N)nc32)O1` [Compound 22, 2-Amino-9-((2R,3R,5S)-3-hydroxy-5-((S)-1-hydroxypropyl)tetrahydrofuran-2-yl)-7-(2-(methylthio)ethyl)-7,9-dihydro-1H-purine-6,8-dione], for which, at human TLR7, the Emax at 500 µM worked out at 69% and it took 224 µM to reach a half-maximal effect (EC50). Besides, in assay [1], the Emax was 307% and the minimal effective concentration is 6.3 µM.

Consider `C#CCn1c(=O)n([C@@H]2O[C@H]([C@H](O)CF)C[C@H]2O)c2nc(N)[nH]c(=O)c21` [Compound 23, 2-Amino-9-((2R,3R,5S)-5-((S)-2-fluoro-1-hydroxyethyl)-3-hydroxytetrahydrofuran-2-yl)-7-(prop-2-yn-1-yl)-7,9-dihydro-1H-purine-6,8-dione], for which the Emax at 500 µM at human TLR7 is less than 5%. Besides, in assay [1], the Emax was no more than 10% and the minimal effective concentration was greater than 50 µM.

As to `C#CCn1c(=O)n([C@@H]2O[C@H]([C@@H](O)CF)C[C@H]2O)c2nc(N)[nH]c(=O)c21` [Compound 24, 2-Amino-9-((2R,3R,5S)-5-((R)-2-fluoro-1-hydroxyethyl)-3-hydroxytetrahydrofuran-2-yl)-7-(prop-2-yn-1-yl)-7,9-dihydro-1H-purine-6,8-dione], at human TLR7, the Emax at 500 µM is 52% and the EC50 is 327 µM. Moreover, in assay [1], the Emax was determined as 205% and the minimal effective concentration was 12.5 µM.

Take `CCCn1c(=O)n([C@@H]2O[C@H]([C@@H](O)C(F)(F)F)C[C@H]2O)c2nc(N)[nH]c(=O)c21` [Compound 25, 2-Amino-9-((2R,3R,5S)-3-hydroxy-5-((R)-2,2,2-trifluoro-1-hydroxyethyl)tetrahydrofuran-2-yl)-7-propyl-7,9-dihydro-1H-purine-6,8-dione]: on human TLR7, the Emax at 500 µM worked out at 74% and the response was half-maximal at 324 µM (EC50). For the same compound, in assay [1], the Emax amounted to 80% and the minimal effective concentration is 19.8 µM.

`CCCn1c(=O)n([C@@H]2O[C@H]([C@@H](O)CC)[C@H](F)[C@H]2O)c2nc(N)[nH]c(=O)c21` [Compound 26, 2-Amino-9-((2R,3S,4R,5R)-4-fluoro-3-hydroxy-5-((S)-1-hydroxypropyl)tetrahydrofuran-2-yl)-7-propyl-7,9-dihydro-1H-purine-6,8-dione]: on human TLR7, the Emax at 500 µM amounted to 59% and the midpoint of the response, the EC50, lay at 269 µM. Besides, in assay [1], the Emax was 304% and the minimal effective concentration is no more than 1.6 µM.

Take `CC[C@H](O)[C@H]1O[C@@H](n2c(=O)n(CCC(F)(F)F)c3c(=O)[nH]c(N)nc32)[C@H](O)[C@H]1F` [Compound 27, 2-Amino-9-((2R,3S,4R,5R)-4-fluoro-3-hydroxy-5-((S)-1-hydroxypropyl)tetrahydrofuran-2-yl)-7-(3,3,3-trifluoropropyl)-7,9-dihydro-1H-purine-6,8-dione]: at human TLR7, the Emax at 500 µM turned out to be 61% and the EC50 is 339 µM. For the same compound, in assay [1], the Emax stood at 209% and the minimal effective concentration was no more than 1.6 µM.

Take `Nc1nc2c(c(=O)[nH]1)n(CCC(F)(F)F)c(=O)n2[C@@H]1O[C@H]([C@@H](O)C(F)(F)F)C[C@H]1O` [Compound 28, 2-Amino-9-((2R,3R,5S)-3-hydroxy-5-((R)-2,2,2-trifluoro-1-hydroxyethyl)tetrahydrofuran-2-yl)-7-(3,3,3-trifluoropropyl)-7,9-dihydro-1H-purine-6,8-dione]: on human TLR7, the Emax at 500 µM stood at 47% and it took 519 µM to reach a half-maximal effect (EC50). Further, in assay [1], the Emax was found to be 105% and the minimal effective concentration amounted to 9.9 µM.

On to `Nc1nc2c(c(=O)[nH]1)n(CC1CC1)c(=O)n2[C@@H]1O[C@H]([C@@H](O)C(F)(F)F)C[C@H]1O` [Compound 29, 2-Amino-7-(cyclopropylmethyl)-9-((2R,3R,5S)-3-hydroxy-5-((R)-2,2,2-trifluoro-1-hydroxyethyl)tetrahydrofuran-2-yl)-7,9-dihydro-1H-purine-6,8-dione], for which, on human TLR7, the Emax at 500 µM worked out at 79% and the EC50 stood at 201 µM. Also, in assay [1], the Emax was found to be 83% and the minimal effective concentration worked out at 6.3 µM.
